According to patent publication US20150344466A1 (SUMITOMO CHEMICAL COMPANY, LIMITED, priority 2013, published 2015):

Columns and labels:
Format in all cases: in vivo
[1] = tested on: Blattella germanica; experiment: Knockdown spray test on Blattella germanica, 2.0% w/v oil formulation (Test Example 1); settings: topical, 0.25 h, active ingredient 2.0% w/v, 1.5 ml sprayed, within 15 minutes, read-out: knockdown rate of the test insects within 15 minutes
How it was run: (§1)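 Ten German cockroaches (5 males, 5 females) in a mesh-bottomed, butter-walled container were sprayed with 1.5 ml test solution from 60 cm at 0.42 kg/cm^2 inside a chamber.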

[2] = tested on: Culex pipiens pallens; experiment: Larvicidal test on Culex pipiens pallens, eight days (Test Example 7); settings: 192 h; last-instar larvae of Culex pipiens pallens; 3.5 ppm in water; eight days later; read-out: death rate
Experimental: 20 last-instar larvae of Culex pipiens pallens were released into a liquid to which 0.7 ml of the above test drug solution was added to 100 ml of ion-exchanged water (a concentration of the active ingredient of 3.5 ppm). Eight days later, the life and death of the Culex pipiens pallens was examined, and the death rate was calculated. The death rate was calculated by the following equation.
Death rate (%)=(Number of dead insects/Number of tested insects)×100

[3] = tested on: Musca domestica; experiment: Knockdown spray test on adult Musca domestica (Test Example 3); settings: topical, 0.25 h, active ingredient 2.0% w/v, 0.5 ml sprayed, within 15 minutes, read-out: knockdown rate of the test insects within 15 minutes
Experimental: Ten adult Musca domestica (five males and five females) were released in a polyethylene cup (bottom diameter: 10.6 cm), and the cup was covered with a 16-mesh nylon gauze. The polyethylene cup was placed on the bottom of a test chamber (bottom: 46 cm×46 cm, height: 70 cm). From a height of 30 cm above the upper surface of the polyethylene cup, 0.5 ml of the test drug solution was sprayed using a spray gun (a spraying pressure of 0.9 kg/cm^2). Immediately after spraying, the cup was taken out from the test chamber, and after 2 minutes, 5 minutes and 15 minutes, the number of knocked-down insects was counted to obtain a knockdown rate. The knockdown rate was calculated by the following equation.
Knockdown Rate (%)=(Number of Knocked-down Insects/Number of Tested Insects)×100

[4] = tested on: Spodoptera litura; experiment: Foliar spray test on Spodoptera litura on cabbage (Test Example 11); settings: 96 h, fourth instar larvae of Spodoptera litura on cabbage, 500 ppm spray 20 ml/cup, after 4 days, read-out: controlling value
Experimental: On the other hand, cabbage was planted in a polyethylene cup, and grown until the third-fourth true leaf was spread. The test spray solution was sprayed to the cabbage at a ratio of 20 ml/cup. After the drug solution sprayed orn the cabbage was dried, 10 fourth instar larvae of Spodoptera litura were allowed to parasitize the cabbage. After 4 days, the number of surviving Spodoptera litura on the cabbage leaves was examined, and the controlling value was calculated according to the following equation. Controlling value (%)={1−(Cb×Tai)/([…])}×100 In the equation, the symbols represent as follows. Cb: the number of insects in a non-treated section before treatment Cai: the number of insects in a non-treated section on observation Tb: the number of insects in a treated section before treatment Tai: the number of insects in a treated section on observation

[5] = tested on: Culex pipiens pallens; experiment: Knockdown spray test on adult Culex pipiens pallens (Test Example 4); settings: topical, 0.25 h, active ingredient 0.1% w/v, 0.5 ml sprayed, within 15 minutes, read-out: knockdown rate of the test insects within 15 minutes
How it was run: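 Ten adult mosquitoes in a gauze-covered cup inside a 46×46×70 cm chamber were sprayed with 0.5 ml of test solution from 30 cm at 0.4 kg/cm^2. The cup was removed at once, and knocked-down insects were counted at 2, 5 and 15 min; knockdown rate (%) = knocked-down/tested ×100.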

[6] = tested on: Musca domestica; experiment: Filter paper/sucrose bait death rate test on Musca domestica (Test Example 5); settings: female imagoes of Musca domestica, 0.7 ml on filter paper, after 24 hours
How it was run: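 Filter paper in a 5.5 cm cup dosed with 0.7 ml test drug solution, with 30 mg sucrose as bait. Ten female adult houseflies released and cup sealed. Dead insects counted after 24 h; death rate (%) = dead/tested × 100.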

[7] = tested on: Blattella germanica; experiment: Knockdown spray test on Blattella germanica, 0.1% w/v oil formulation (Test Example 2); settings: topical, 0.25 h, active ingredient 0.1% w/v, 1.5 ml sprayed, within 15 minutes, read-out: knockdown rate of the test insects within 15 minutes
How it was run: as §1

[8] = tested on: Plutella xylostella; experiment: Foliar spray test on Plutella xylostella on cabbage (Test Example 10); settings: 120 h, third instar larvae of Plutella xylostella on cabbage, 500 ppm spray 20 ml/cup, after five days, read-out: controlling value
How it was run: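 Cabbage at the third–fourth true-leaf stage sprayed with test solution at 20 ml/cup, dried, then infested with 10 third-instar larvae. Insects counted after five days; controlling value (%) calculated from treated and non-treated counts before treatment and at observation.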

Row | SMILES | pest or weed control at 2 % strength [1] [%] | pest or weed control at 3.5 ppm [2] [%] | pest or weed control at 2 % strength [3] [%] | pest or weed control at 500 ppm [4] [%] | pest or weed control at 0.1 % strength [5] [%] | pest or weed control at 500 ppm [6] [%] | pest or weed control at 0.1 % strength [7] [%] | pest or weed control at 500 ppm [8] [%]
1 | O=C(NCC1CCOC1)c1cc(COCc2ccc3ccccc3c2)on1 (stereo not shown) [(20), N-(tetrahydrofuran-3-ylmethyl)-5-(2-naphthylmethoxymethyl)isoxazole-3-carboxamide] | ≥ 80 | ≥ 90 | ≥ 80 | ≥ 80 | ≥ 80 | – | – | –
2 | O=C(NCC1CCOCC1)c1cc(COCc2cccc(Cl)c2)on1 [(69), N-(tetrahydropyran-4-ylmethyl)-5-(3-chlorobenzyloxymethyl)isoxazole-3-carboxamide] | – | – | – | ≥ 80 | ≥ 80 | ≥ 90 | ≥ 80 | ≥ 90
3 | O=C(NCC1CCOC1)c1cc(COCc2cccc(Br)c2)on1 (stereo not shown) [(76), N-(tetrahydrofuran-3-ylmethyl)-5-[(3-bromobenzyl)oxymethyl]isoxazole-3-carboxamide] | – | ≥ 90 | – | ≥ 80 | ≥ 80 | ≥ 90 | ≥ 80 | ≥ 90
4 | O=C(NCC1CCOCC1)c1cc(COCc2cccc(Br)c2)on1 [(77), N-(tetrahydropyran-4-ylmethyl)-5-(3-bromobenzyloxymethyl)isoxazole-3-carboxamide] | – | ≥ 90 | – | ≥ 80 | ≥ 80 | – | ≥ 80 | –
5 | O=C(NCC1CCOCC1)c1cc(COCc2cccc(OC(F)(F)F)c2)on1 [(79)] | – | – | – | ≥ 80 | ≥ 80 | ≥ 90 | ≥ 80 | ≥ 90
6 | O=C(NCC1CCOC1)c1cc(COCc2cc3ccccc3s2)on1 (stereo not shown) [(112), N-(tetrahydrofuran-3-ylmethyl)-5-(benzothiophen-2-ylmethoxymethyl)isoxazole-3-carboxamide] | – | – | – | ≥ 80 | ≥ 80 | – | ≥ 80 | –
7 | O=C(NCC1CCOC1)c1cc(COc2cccc(Br)c2)on1 (stereo not shown) [(196), N-(tetrahydrofuran-3-ylmethyl)-5-(3-bromophenoxymethyl)isoxazole-3-carboxamide] | – | – | – | ≥ 80 | ≥ 80 | – | ≥ 80 | –
8 | O=C(NCC1CCOCC1)c1cc(COc2cccc(Br)c2)on1 [(197), N-(tetrahydropyran-4-ylmethyl)-5-(3-bromophenoxymethyl)isoxazole-3-carboxamide] | – | – | – | ≥ 80 | ≥ 80 | – | – | –
9 | O=C(NCC1CCOC1)c1cc(COc2cccc(C(F)(F)F)c2)on1 (stereo not shown) [(198), N-(tetrahydrofuran-3-ylmethyl)-5-(3-trifluoromethylphenoxymethyl)isoxazole-3-carboxamide] | – | ≥ 90 | – | ≥ 80 | ≥ 80 | – | ≥ 80 | –
10 | O=C(NCC1CCOC1)c1cc(COCc2ccc3ccccc3c2F)on1 (stereo not shown) [(258), N-(tetrahydrofuran-3-ylmethyl)-5-(1-fluoro-2-naphthylmethoxymethyl)isoxazole-3-carboxamide] | – | ≥ 90 | – | ≥ 80 | ≥ 80 | – | ≥ 80 | ≥ 90
11 | O=C(NCC1CCOC1)c1cc(COCc2ccc(Cl)cc2F)on1 (stereo not shown) [(260), N-(tetrahydrofuran-3-ylmethyl)-5-(4-chloro-2-fluorobenzyloxymethyl)isoxazole-3-carboxamide] | – | ≥ 90 | – | ≥ 80 | ≥ 80 | ≥ 90 | ≥ 80 | –
12 | O=C(NCC1CCOC1)c1cc(COCc2ccc(Br)c(F)c2)on1 (stereo not shown) [(272), N-(tetrahydrofuran-3-ylmethyl)-5-(4-bromo-3-fluorobenzyloxymethyl)isoxazole-3-carboxamide] | – | – | – | ≥ 80 | ≥ 80 | – | – | ≥ 90
13 | O=C(NCC1CCOC1)c1cc(Cc2ccc(F)c(F)c2)on1 (stereo not shown) [(306), N-(tetrahydrofuran-3-ylmethyl)-5-(3,4-difluorobenzyl)isoxazole-3-carboxamide] | – | – | – | ≥ 80 | ≥ 80 | ≥ 90 | ≥ 80 | ≥ 90
14 | O=C(NCC1CCOC1)c1cc(Cc2ccc(OC(F)(F)F)cc2)on1 (stereo not shown) [(315), N-(tetrahydrofuran-3-ylmethyl)-5-(4-trifluoromethoxybenzyl) isoxazole-3-carboxamide] | – | ≥ 90 | – | ≥ 80 | ≥ 80 | ≥ 90 | – | –
15 | O=C(NCC1CCOC1)c1cc(Cc2cccc(F)c2)on1 (stereo not shown) [(318), N-(tetrahydrofuran-3-ylmethyl)-5-(3-fluorobenzyl)isoxazole-3-carboxamide] | – | – | – | ≥ 80 | ≥ 80 | – | ≥ 80 | ≥ 90
16 | O=C(NCC1CCOC1)c1cc(Cc2cccc(Cl)c2)on1 (stereo not shown) [(321), N-(tetrahydrofuran-3-ylmethyl)-5-(3-chlorobenzyl)isoxazole-3-carboxamide] | – | – | – | ≥ 80 | ≥ 80 | ≥ 90 | ≥ 80 | –
17 | O=C(NCC1CCOC1)c1cc(Cc2ccc(Cl)c(Cl)c2)on1 (stereo not shown) [(325), N-(tetrahydrofuran-3-ylmethyl)-5-(3,4-dichlorobenzyl)isoxazole-3-carboxamide] | – | – | – | ≥ 80 | ≥ 80 | ≥ 90 | ≥ 80 | –
18 | CC1(CNC(=O)c2cc(CCCc3ccc4ccccc4c3)on2)COC1 [(332), N-(3-methyloxetan-3-ylmethyl)-5-[3-(2-naphthyl)propyl]isoxazole-3-carboxamide] | ≥ 80 | ≥ 90 | ≥ 80 | – | ≥ 80 | – | ≥ 80 | –
